According to US6399316B1, “PACAP receptor protein, method for preparing said protein, and use thereof” (Takeda Chemical Industries, Ltd., priority 1994, dated 2002):

Experiments:
PACAP receptor = details: unlabeled peptide, tissue membrane fraction; cited from earlier work
[1] = target: T1, Bovine PACAP receptor protein (Bos taurus, UniProt Q29627); assay: Intracellular cyclic AMP production of bovine PACAP receptor cDNA-expressed CHO cells; assay type: cell-based; details: 37° C., 30 minutes, 0.2 mM 3-isobutyl-1-methylxanthine, FIG. 36
T1 construct: The complete primary structure of bovine PACAP receptor protein based on pBPR-T was deduced; expressed in transfected cells; host or cells: CHO cells, pBPR-T in pRc/CMV, G-418 selected
T1 sequence (Q29627 38-513): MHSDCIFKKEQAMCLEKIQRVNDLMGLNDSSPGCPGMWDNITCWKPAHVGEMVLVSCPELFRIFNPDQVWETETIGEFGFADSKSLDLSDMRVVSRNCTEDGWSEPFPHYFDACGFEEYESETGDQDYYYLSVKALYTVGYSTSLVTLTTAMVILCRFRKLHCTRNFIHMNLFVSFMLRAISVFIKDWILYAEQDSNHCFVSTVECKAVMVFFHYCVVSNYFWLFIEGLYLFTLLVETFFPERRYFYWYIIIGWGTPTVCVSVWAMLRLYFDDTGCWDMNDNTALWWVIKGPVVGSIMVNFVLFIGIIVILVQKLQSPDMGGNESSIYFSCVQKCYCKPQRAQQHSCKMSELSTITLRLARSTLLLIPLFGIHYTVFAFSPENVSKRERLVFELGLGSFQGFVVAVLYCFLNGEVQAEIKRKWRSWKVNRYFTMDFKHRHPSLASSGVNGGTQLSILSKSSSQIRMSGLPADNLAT
Experimental: Three days after the transformants (CHO cells) were plated on a 24-well plate, the cells were washed with Hank's buffer (composition: 8 g/l NaCl, 0.4 g/l KCl, 0.06 g/l Na2HPO4, 1.0 g/l glucose, 0.2 g/l MgSO4, 0.14 g/l CaCl2 and 0.35 g/l NaHCO3) supplemented with 0.05% BSA, and treated in the presence of 0.2 mM 3-isobutyl-1-methylxanthine at 37° C. for 1 hour. […] After the cells were washed with the above-mentioned Hank's buffer supplemented with 0.05% BSA, intracellular cyclic AMP was extracted by the use of 500 μl of Hank's buffer and 100 μl of 20% perchloric acid, and neutralized with 1.5 M KOH. The amount of cyclic AMP was assayed with a cAMP oxygen immunoassay system (BIOTRAK Amersham).

[2] = target: T2, purified bovine PACAP receptor protein (Bos taurus, UniProt Q29627); assay: Competitive binding experiment for the purified PACAP receptor protein with [125I]PACAP27; details: vs 100 pM [125I]PACAP27, FIG. 31
T2 construct: from tissue; host or cells: bovine cerebrum
T2 sequence (Q29627 38-513): T1 sequence (Q29627 38-513)
Experimental: (§1) The test sample (membrane fraction or solubilized membrane protein fraction) was appropriately diluted with buffer D (20 mM Tris, 5 mM magnesium chloride, 0.1% BSA and 0.05% digitonin, pH 7.4). […] To 0.1 ml of this reaction solution, 1.5 ml of buffer E (0.1% BSA, 0.05% CHAPS, 20 mM Tris and 5 mM magnesium chloride, pH 7.4) cooled with ice was added, and immediately, the mixed solution is filtered through a glass fiber filter. […] Results of the saturation binding experiment were subjected to Scatchard plot analysis to determine the dissociation constant and the maximum binding.
Analysis results obtained by polyacrylamide electrophoresis for the final purified sample in the presence of sodium dodecylsulfate are shown in FIG. 28. […] This protein having a molecular weight of about 57,000 is the PACAP receptor protein occurring in the bovine cerebrums.

[3] = target: T1, Bovine PACAP receptor protein; assay: Competitive binding experiment, membrane fraction of bovine PACAP receptor cDNA (pBPR-T)-expressed CHO cells; details: 100 pM [125I]-PACAP27, 25° C., 75 minutes, FIG. 35
Experimental: The transformants (CHO cells) cultivated for 3 days after subculture were separated using 0.2 mM EDTA/phosphate buffer, and suspended in 10 mM sodium carbonate buffer supplemented with 1 mM EDTA, 0.5 mM phenylmethylsulfonyl fluoride (PMSA), 20 μg/ml leupeptin, 4 μg/ml E-64 and 1 μg/ml pepstatin. The suspended cells were disrupted with a Polytron homogenizer (Kinematica). The disrupted product was centrifuged with a high speed cooling centrifuge (CR26H, Roter RR18, Hitachi, Ltd.) at 3,000 rpm for 10 minutes to obtain a supernatant. The resulting supernatant was further ultracentrifuged with an ultracentrifuge (SCP70H, Roter RPZ35T, Hitachi, Ltd.) at 30,000 rpm for 60 minutes to obtain pellets. The resulting pellets were suspended in a buffer [20 mM Tris-HCl (pH 7.4), 0.25 M sucrose, 2 mM EDTa, 0.5 mM PMSF, 20 μg/ml leupeptin and 1 μg/ml pepstatin] to prepare a membrane fraction suspension.
Bound ligands were separated from free ligands through a glass fiber filter. […] The binding was examined with a a γ-ray counter. The dissociation constant and the maximum binding were examined by Scatchard plot analysis (FIG. 34).

[4] = target: T1, Bovine PACAP receptor protein; assay: Intracellular inositol phosphate of bovine PACAP receptor cDNA-expressed CHO cells; assay type: cell-based; details: 37° C., 20 minutes, FIG. 37
Experimental: The pathway of signal transmission of inositol phosphate well known as the pathway of signal transmission together with cyclic AMP was examined. […] One hundred microliters of 20% perchloric acid was added thereto to stop the reaction, and intracellular inositol phosphate was extracted. The extract was neutralized with 1.5 M KOH. All inositol phosphate was separated from free inositol by the use of ion exchange chromatography (AGI-X8, Bio RAD). Thereafter, inositol phosphate was eluted with 1 M ammonium formate/0.1 M formic acid, and the amount of inositol phosphate was measured with a scintillation counter.

[5] = target: T3, human PACAP receptor protein (Homo sapiens, UniProt P41586); assay: Intracellular cyclic AMP of human PACAP receptor protein-expressed CHO-K1 cells; assay type: cell-based; details: 37° C., 30 minutes, 0.2 mM 3-isobutyl-1-methylxanthine, FIG. 48
T3 construct: expressed in transfected cells; host or cells: CHO-K1 cells (ICN), pTS849 (pRc/CMV), G-418 selected
T3 sequence (P41586 21-468): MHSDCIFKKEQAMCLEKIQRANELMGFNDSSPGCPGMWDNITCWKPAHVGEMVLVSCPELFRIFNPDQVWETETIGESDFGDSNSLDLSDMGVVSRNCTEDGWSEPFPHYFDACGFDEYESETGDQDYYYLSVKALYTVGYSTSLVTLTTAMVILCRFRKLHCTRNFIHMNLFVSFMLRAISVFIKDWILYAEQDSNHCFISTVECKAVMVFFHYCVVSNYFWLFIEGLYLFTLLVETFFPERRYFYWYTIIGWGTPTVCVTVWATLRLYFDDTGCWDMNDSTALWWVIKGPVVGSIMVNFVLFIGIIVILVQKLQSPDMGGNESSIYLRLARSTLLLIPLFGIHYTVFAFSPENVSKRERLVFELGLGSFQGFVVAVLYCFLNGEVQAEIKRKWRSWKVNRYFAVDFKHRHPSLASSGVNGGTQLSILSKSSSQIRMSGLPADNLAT
Experimental: After washing twice with Hank's buffer containing the culture buffer, 10 mM HEPES and 0.05% BSA, the CHO-K1 cells were cultivated in the above-mentioned buffer supplemented with 0.2 mM 3-isobutyl-1-methylxanthine at 37° C. for 60 minutes. […] After absorption of the buffer, the cells were washed twice with the culture buffer. Then, cAMP was extracted from the cells with 20% perchloric acid. After transfer to a 1.5-ml Eppendorf tube, the extract was centrifuged with a Tomy microcentrifuge at 12,000 rpm for 5 minutes, and the supernatant was neutralized with 1.5 N KOH/60 mM HEPES to prepare a cell eluted solution. The concentration of cyclic AMP was determined by the acetylation method of a cAMP assay system (Amersham). Under these determination conditions, when nothing was added, the amount of intracellular CAMP was 0.7 pmole/well.

[6] = target: T3, human PACAP receptor protein; assay: Competitive inhibition experiment, membrane fraction of human PACAP receptor-expressed CHO-K1 cells; assay type: binding; details: FIG. 47
Experimental: as §1

[7] = target: T4, rat PACAP receptor protein Type I-B (pRPR4-B) (Rattus norvegicus, UniProt P32215); assay: Intracellular cyclic AMP of rat PACAP receptor cDNA-introduced CHO cells, strain B17; assay type: cell-based; details: CHO strain B17, 37° C., 40 minutes, 0.5 mM IBMX, FIG. 43
T4 construct: two kinds of complete primary structures of rat PACAP receptor protein were deduced; expressed in transfected cells; host or cells: CHO cells, pRPR4-B (pRc/CMV); clone B17 for cAMP
T4 sequence (P32215 20-495 isoform P32215-2 limits assumed): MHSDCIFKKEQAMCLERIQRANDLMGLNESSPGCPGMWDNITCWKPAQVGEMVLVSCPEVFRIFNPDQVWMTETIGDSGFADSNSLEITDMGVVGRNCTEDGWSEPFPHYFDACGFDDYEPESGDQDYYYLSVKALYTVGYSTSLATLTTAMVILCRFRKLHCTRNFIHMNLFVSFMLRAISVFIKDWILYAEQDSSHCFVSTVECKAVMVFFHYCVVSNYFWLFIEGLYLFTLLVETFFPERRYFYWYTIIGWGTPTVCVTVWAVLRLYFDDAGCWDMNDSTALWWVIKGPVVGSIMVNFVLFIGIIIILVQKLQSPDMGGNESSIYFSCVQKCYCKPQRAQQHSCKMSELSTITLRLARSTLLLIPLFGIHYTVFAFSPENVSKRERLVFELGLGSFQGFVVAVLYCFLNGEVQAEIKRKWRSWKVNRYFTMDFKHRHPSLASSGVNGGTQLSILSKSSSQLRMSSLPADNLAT
Experimental: (§2) Each 48-well plate for tissue culture was inoculated with each of the cell strains. at a density of 1.0×10^5 cells/well, followed by cultivation for 3 days. The plate was washed twice with Ham's F12 medium supplemented with 0.1% BSA and 0.5 mM IBMX, and 500 μl/well of the same medium was added thereto. […] The supernatant was removed, and extraction was conducted with 100% cold ethanol. The extract was evaporated to dryness with a centrifugal freeze dryer, and redissolved in the buffer attached to an EIA kit for assaying cyclic AMP (Amersham). Then, the amount of cyclic AMP was assayed according to the formulation of the kit.

[8] = target: T4, rat PACAP receptor protein Type I-B (pRPR4-B); assay: Competitive binding with [125I]-PACAP27, membrane fraction of pRPR4-B-introduced CHO cells; details: 100 pM [125I]-PACAP27, 25° C., 1 hour, FIG. 40 (B)
Experimental: (§3) The pRPR3-A-introduced and pRPR4-B-introduced CHO cells obtained in (2) described above were each disrupted in sodium carbonate buffer containing 1 mM EDTA, 0.5 mM PMSF, 20 μg/ml leupeptin, 4 μg/ml E-64 and 1 μg/ml pepstatin with a Polytron homogenizer (Kinematica) to prepare membrane fractions. Using the membrane fractions, complex binding experiments were conducted. For each of the membrane fractions of the pRPR3-A-introduced CHO cells and the pRPR4-B-introduced CHO cells, each of 10 μg and 15 μg (converted to a protein amount) thereof was ligated with. […] The reaction was conducted at 25° C. for 1 hour, and bound ligands were separated from free ligands by filtration through a filter. […] The amount of bound ligands was measured with a γ-counter.

[9] = target: T5, rat PACAP receptor protein Type I-A (pRPR3-A) (Rattus norvegicus, UniProt P32215); assay: Competitive binding with [125I]-PACAP27, membrane fraction of pRPR3-A-introduced CHO cells; details: 100 pM [125I]-PACAP27, 25° C., 1 hour, FIG. 40 (A)
T5 construct: pRPACAPR46 and pRPACAPR5 were recombined at the BamHI site to prepare pRPACAPR46-5 having a complete translation frame; expressed in transfected cells; host or cells: CHO cells, pRPR3-A (pRc/CMV); clone A12 for cAMP
T5 sequence (P32215 20-467 isoform P32215-5 limits assumed): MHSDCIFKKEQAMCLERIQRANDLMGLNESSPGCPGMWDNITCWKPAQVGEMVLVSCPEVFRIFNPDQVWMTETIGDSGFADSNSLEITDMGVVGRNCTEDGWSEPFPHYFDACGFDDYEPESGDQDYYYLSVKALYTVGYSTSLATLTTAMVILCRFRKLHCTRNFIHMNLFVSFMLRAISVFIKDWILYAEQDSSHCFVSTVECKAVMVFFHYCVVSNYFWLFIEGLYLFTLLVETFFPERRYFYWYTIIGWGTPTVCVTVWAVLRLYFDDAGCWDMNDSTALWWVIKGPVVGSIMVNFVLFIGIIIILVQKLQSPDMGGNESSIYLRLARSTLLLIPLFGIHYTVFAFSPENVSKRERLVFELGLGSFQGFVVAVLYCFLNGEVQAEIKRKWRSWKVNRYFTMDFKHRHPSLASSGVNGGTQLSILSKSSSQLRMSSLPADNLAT
Experimental: as §3

[10] = target: T5, rat PACAP receptor protein Type I-A (pRPR3-A); assay: Intracellular cyclic AMP of rat PACAP receptor cDNA-introduced CHO cells, strain A12; assay type: cell-based; details: CHO strain A12, 37° C., 40 minutes, 0.5 mM IBMX, FIG. 43
Experimental: as §2

Substance: PACAP27
- inhibition of [125I]PACAP27 binding to the membrane fraction (PACAP receptor): inhibited
- concentration of intracellular cyclic AMP [1]: increased depending on the concentrations
- reaction with purified PACAP receptor protein in competitive binding experiment [2]: reacting
- reactivity (competition with [125I]-PACAP27) [3]: high reactivity
- concentration of inositol phosphate [4]: increased depending on the concentrations
- concentration of intracellular cAMP [5]: increased depending on the concentrations
- competition with [125I]-PACAP27 [6]: competed

Substance: PACAP38: pituitary adenylate cyclase activating polypeptide consisting of 38 amino acid residues, SEQ ID NO: 46-NH2
- inhibition of [125I]PACAP27 binding to the membrane fraction (PACAP receptor): inhibited

Substance: Vasoactive intestinal peptide [VIP]
- production of intracellular cyclic AMP [7]: a concentration much higher than that of the PACAPs was required
- inhibition of [125I]PACAP27 binding to the membrane fraction (PACAP receptor): not inhibited
- competition with [125I]-PACAP27 [8]: competition was observed only at a concentration much higher than that of PACAP27
- reaction with purified PACAP receptor protein in competitive binding experiment [2]: not reacting
- reactivity (competition with [125I]-PACAP27) [3]: low in reactivity
- competition with [125I]-PACAP27 [9]: competition was observed only at a concentration much higher than that of PACAP27
- concentration of intracellular cAMP [5]: little raised
- production of intracellular cyclic AMP [10]: a concentration much higher than that of the PACAPs was required
- weakness relative to PACAP27 in competitive inhibition [6]: 1,000 times
